row,melting point [°C],SMILES
1,110 to 114,COc1ccc(C(C#Cc2cccc(-c3nnc(C)o3)c2)CC(=O)O)cc1OC1CCCC1 (racemic)
2,148,CCOC(=O)Nc1ccn2cc(C)nc2c1I
3,263 to 266,CC(C)(O)c1ccc(-c2cnc3[nH]c(=O)n(CCC4CCOCC4)c3n2)cc1
4,223 to 225,CC1(C)C(=O)Nc2ccc(-c3ccc([N+](=O)[O-])s3)cc21
5,76 to 77,CCCc1cc(Cl)c2oc(Cc3ccc(Cl)cc3)c(C)c2c1O
6,98 to 101,Nc1nc(NCCCCCCNS(=O)(=O)c2cccc3ccccc23)nc2ccccc12
7,163 to 164,Cc1cc(OC(F)F)nc(NC(=O)NS(=O)(=O)c2ccccc2OC(F)F)n1
8,246 to 248,CC(C)(CO)c1ccc(C(=O)Nc2cn3cc(-c4ccoc4)ccc3n2)cc1
9,155 to 156,O=CN(CCOc1ccc2ccccc2c1)c1ccc(C(=O)C(=O)O)cc1
10,43 to 44,C=CCc1cc(Cl)cc2nc(Cc3ccc(OC)c(OC4CCCC4)c3)oc12
11,71 to 79,CC(OC(=O)C1(C(=O)O)Oc2ccc(C[C@@H](C)NC[C@H](O)c3cccc(Cl)c3)cc2O1)c1ccccc1 (some centres not stated)
12,188 to 191,Cc1ccc(C(=O)c2cccc3c2CCC3C(N)=O)cc1 (configuration not stated)
13,80,CCCc1c(OCC2Cc3cc(C(=O)CCC(=O)O)ccc3O2)ccc(C(C)=O)c1O (configuration not stated)
14,91 to 92,Fc1cccc(CCc2nnc(-c3ccnc(NCCCc4ccccc4)c3)o2)c1
15,228,CC(C)(C)c1ccc2c(c1)C(=O)c1ccc(-c3nnn[nH]3)cc1S2(=O)=O
16,191 to 192,FC(F)C(F)(F)Oc1cccc(Nc2nccc(-c3ccncc3)n2)c1
17,88 to 89,CCC(=NO)c1ccc(OCCCCCCCc2cc(C)no2)cc1
18,101 to 102,CCCc1ccc(OCCCc2cc3c(cc2O)CCO3)cc1
19,141 to 143,NC(=O)n1ccc(-c2ccc(Oc3ccc(F)cc3)cc2)n1
20,96.3,CCCCCCCc1ccc(-c2ncc(C#N)cn2)cc1

row,melting point [°C],SMILES
1,203 to 205,O=C(O)CCc1nc(-c2cc3ccccc3o2)cs1
2,172 to 174,NC(=O)c1cc(COc2ccc([N+](=O)[O-])cc2)ccn1
3,91 to 92,COCCNC(=O)c1cccc(-c2cccc3oc(Cc4cccc(C(F)(F)F)c4)cc23)c1
4,40 to 41,c1ccc(Sc2cc(Sc3ccccc3)cc(Sc3ccccc3)c2)cc1
5,177 to 179,CCCCN(CCCC)c1ccc(C=Cc2cc(C)c(C=CC3=C(C#N)C(=C(C#N)C#N)OC3(c3ccccc3)C(F)(F)F)cc2C)c(OC)c1 (configuration not stated)
6,142,Cc1cccc(C(=O)Nc2nc(C(Cl)(Cl)Cl)ns2)c1
7,246 to 249,CN1C(=O)C2(COc3cc4c(cc32)OCCO4)c2c(N3CCOCC3)cccc21 (configuration not stated)
8,107 to 110,CC1(n2ncc(-c3ccc(S(C)(=O)=O)cc3)c(-c3ccc(F)cc3)c2=O)CCCC1
9,205 to 208,O=C1NCN2c3ccc([N+](=O)[O-])cc3Sc3cccc1c32
10,99.5,Cc1cc(-c2noc(C)c2-c2ccc(S(C)(=O)=O)c(F)c2)ccc1-c1cscn1
11,267 to 268,COc1cc2c(c(Cl)c1Cl)S(=O)(=O)C(c1ccccc1F)=C2
12,212 to 214,CN(C)CCSc1sc(-c2cc[nH]n2)c2c1C(=O)CC(C)(C)C2
13,> 240,O=c1cc[nH]c2c(Sc3nc4ccccc4[nH]3)cccc12
14,254 to 257,O=C1NC(=S)C(c2c[nH]c3ccccc23)=C1c1c[nH]c2ccccc12
15,138 to 139,CCOC(=O)c1cc2c3ccccc3ncn2c1
16,90 to 92,COC(=O)c1cccc(C(=O)N(C)C)n1
17,153 to 154,Cc1cc(C(C)C(=O)O)n(C)c1C(=O)c1ccc(Cl)cc1 (configuration not stated)
18,164,CC(O)(Cc1cnc(Cl)s1)c1ccc(Cl)cc1Cl (configuration not stated)
19,105 to 107,CCOC(=O)Cc1nnc2c(CC(C)C)nc(-c3ccccc3)cn12
20,268 to 270,COc1cc(Nc2c(C#N)cnc3cc(-c4ccc(C=O)cc4)sc23)cc(OC)c1OC

row,melting point [°C],SMILES
1,292,Nc1nc(Nc2ccc(N3CCOCC3)cc2)sc1C(=O)c1c(Cl)cncc1Cl
2,110 to 115,COc1cc(C(C)C)ccc1C1(O)C(=O)c2c(NC(C)=O)ccc([N+](=O)[O-])c2C1=O (configuration not stated)
3,167 to 172,CCC(=O)c1cc(C2(c3cccc(-c4cncnc4)c3)N=C(N)N(C)C2=O)cs1 (configuration not stated)
4,> 240,CC(=O)c1ccc(NS(=O)(=O)c2ccc3c(c2)-c2c(nc(C)[nH]c2=O)CC3)cc1
5,237,CCCC1=C(C#N)C(c2ccccc2Cl)c2c(n[nH]c2CCC)N1 (configuration not stated)
6,108,CCCCOC(=O)c1ccc2ccc(C=O)nc2c1OC(=O)C(C)(C)C
7,245 to 247,COc1ccc(Cl)cc1C1(O)C(=O)Nc2ccc(Br)cc21 (configuration not stated)
8,187 to 189,COc1cc(Nc2c(C#N)cnc3cc(-c4ccc(CN(C)C)cc4)ccc23)c(Cl)cc1Cl
9,205 to 207,Cc1c(-c2ccccc2)sc2c1c(=O)c(C(=O)C(C)C)cn2Cc1c(F)cccc1F
10,204 to 205,CN1CCN(c2cccc3c2C[C@H](NC(=O)c2ccc(Cl)cc2)CC3)CC1
11,101 to 103,COc1ccc(-n2nc(C(O)c3ccccc3)cc2-c2ccc(C)cc2)cc1 (configuration not stated)
12,217 to 219,CS(=O)(=O)c1ccc(-c2coc(=O)n2-c2ccc(Br)cc2)cc1
13,124 to 125,CN(C)CCNC(=O)Cn1c(-c2cccc(Cl)c2)nc2cccnc21
14,258 to 259,O=c1nc(N(Cc2nnn[nH]2)c2ccc(Cl)cc2)sc2ncccc12
15,166 to 167,O=c1c2ccccc2sc2ccc(N3CCOCC3)cc12
16,160 to 162,O=C1C(c2ccc(O)cc2)=C(Br)c2c(O)cc(O)cc21
17,230 to 234,Cc1cccc(-c2[nH]c(C(C)C)nc2-c2ccc(F)c(-c3c[nH]c(C)n3)c2)n1
18,165 to 167,O=C1CCC(N2C(=O)c3cccc(CNC(=O)c4ccc(C(F)(F)F)c(F)c4)c3C2=O)C(=O)N1 (configuration not stated)
19,208 to 220,COC(=O)c1cc2c(nc1C1=NC(C)(C(C)C)C(=O)N1)CCOC2 (configuration not stated)
20,183 to 184,COc1cc2c3ccc(OC)c(OC)c3c(=O)n(Cc3ccccc3)c2cc1OC

# Continued, molecule first:
row,SMILES,melting point [°C]
1,Nc1ccc(CC(NC(=O)C(c2ccccc2)c2ccccc2)c2ccccc2)cc1 (configuration not stated),161 to 163
2,Cc1ccccc1NC1=CC(=O)NCC1,155 to 158
3,COC(=O)c1cnc(C(=O)OC)c2ccccc12,69 to 70
4,O=C(Nc1ccc(C(=O)N2Cc3cccn3Cc3ccccc32)cc1)c1ccccc1C(F)(F)F,226 to 228
5,COc1cc(Nc2c(C#N)cnc3cc(-c4csc(C5OCCO5)c4)sc23)c(Cl)cc1Cl,219 to 221
6,O=C([C@@H]1CCCN1C(=O)OCc1ccccc1)N1CCOCC1,139 to 140
7,CCCc1cc(CCC)n2nc(C)c(C#N)c2n1,73 to 74
8,CC(=O)N1CC(C)(C)CN=C1N(N=CC(C=Cc1ccc(C(F)(F)F)cc1)=Cc1ccc(C(F)(F)F)cc1)C(C)=O,70 to 72
9,COC(=O)c1nc(CN(C)C)n(-c2ccc(Cl)cc2C(=O)c2ccccc2)n1,118 to 121
10,CS(=O)(=O)c1ccc(C(CC2CCCC2)C(=O)Nc2nccs2)cc1[N+](=O)[O-] (configuration not stated),121 to 124
11,O=C(O)C12CC3(F)CC(F)(CC(F)(C3)C1)C2,198 to 199
12,CCOC(=O)c1cnc2c(c1O)CCCCCCCC2,212 to 230
13,COC(=O)N(C(=O)c1ccc(C2=NOC(c3cc(Cl)cc(Cl)c3)(C(F)(F)F)C2)cc1C)c1cncnc1 (configuration not stated),72 to 76
14,COC(=O)Cc1c(C(=O)OC)ccn1CCI,137 to 138
15,COC(=O)c1ccc(C#Cc2ccc(O)c(C34CC5CC(CC(C5)C3)C4)c2)s1,207 to 208
16,COc1cc(C=O)nnc1OC,179 to 181
17,COc1cc(NC(=O)CCN2CCCN(CCC(=O)Nc3cc(OC)c(OC)c(OC)c3)CC2)cc(OC)c1OC,135 to 137
18,Oc1ccc(CN2CCN(CCCN3CCN(Cc4ccc(O)cc4)CC3)CC2)cc1,197 to 201
19,CC(C)=CC(C#N)NC(=O)c1cc(C)nn1C (configuration not stated),92.5 to 94
20,CCCCCCCc1ccc(OC(=O)c2cc3c(s2)CC(CCCCC)C3)cc1 (configuration not stated),64
21,COC(=O)c1cc(I)c(C(F)(F)F)cc1NC(C)=O,96 to 98

row,SMILES,melting point [°C]
1,O=C1NCCN(CC(=O)N2CCOCC2)C1c1cccs1 (configuration not stated),190 to 193
2,COCc1cc([N+](=O)[O-])ccc1C,45 to 49
3,CS(=O)(=O)Nc1ccc(C(O)CN2CCCCCC2)cc1 (configuration not stated),120 to 122
4,NS(=O)(=O)c1cccc2c1C(Cl)=CC2,100 to 101
5,CCCCCc1cc2c(cc1C#C/C=C/C(C)=C/C(=O)O)C(C)(C)CCC2(C)C,155 to 156
6,CCCCCCOc1nc(O)ns1,61
7,O=C1c2ccsc2S(=O)(=O)CCN1CCCCN1CCN(c2ncccn2)CC1,161 to 163
8,CCCCOc1nc(N)c2nc(OC)n(CCCBr)c2n1,200 to 201
9,CN1CC(=O)N2CCC[C@H]2C1=O,133 to 135
10,O=C(O)Cn1cc(Cl)cnc1=O,186 to 188
11,CCOC(=O)NCC#N,49
12,CN(C)c1ccc(C(=O)CCCCC2CCN(Cc3ccccc3)CC2)cc1,121 to 123
13,CC(=O)Nc1ccc(C(=O)O)c(O)c1,221 to 223
14,O=C1C(=Cn2ccnc2)CSc2ccccc21,139 to 140
15,OC1COC(c2ccc(Cl)cc2)OC1 (configuration not stated),95 to 100
16,CCOP(=O)(OCC)C(O)=C1CCc2cc(CC3CCCC3)c(Cl)cc21,126
17,CONS(=O)(=O)c1ccc(C(F)(F)F)cc1,96 to 97
18,COC(=O)c1cn2ccsc2n1,153 to 156
19,C=Cc1cnc([N+](=O)[O-])n1CC,45 to 47
20,COC(=O)C=Cc1ccc(Br)nc1,150
21,Oc1ccc2nc(Br)sc2c1,203 to 204

# From a melting point compilation (Tetko et al.; mined from patent text by program, amines drawn as free bases though some values may be those of a salt)
